How the values were obtained:
[1] = target: T1, Peroxisome proliferator-activated receptor gamma (Homo sapiens, UniProt P37231)
T1 sequence (P37231 whole entry): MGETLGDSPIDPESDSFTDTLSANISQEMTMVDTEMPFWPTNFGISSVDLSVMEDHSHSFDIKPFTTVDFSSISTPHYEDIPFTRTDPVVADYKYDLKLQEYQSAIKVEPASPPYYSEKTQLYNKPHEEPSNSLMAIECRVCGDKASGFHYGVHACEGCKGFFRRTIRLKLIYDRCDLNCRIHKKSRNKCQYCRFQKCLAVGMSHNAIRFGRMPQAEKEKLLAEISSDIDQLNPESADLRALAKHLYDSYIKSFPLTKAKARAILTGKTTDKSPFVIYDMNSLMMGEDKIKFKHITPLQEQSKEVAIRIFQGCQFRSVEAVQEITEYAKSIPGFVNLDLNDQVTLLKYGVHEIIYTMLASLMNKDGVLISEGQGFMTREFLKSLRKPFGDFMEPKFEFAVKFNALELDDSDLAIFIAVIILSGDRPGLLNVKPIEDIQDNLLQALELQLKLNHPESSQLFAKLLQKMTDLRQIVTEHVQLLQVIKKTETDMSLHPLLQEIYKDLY
Description: Agonist activity at human PPARgamma receptor by cell based transient transfection assay

[2] = target: T2, Peroxisome proliferator-activated receptor alpha (Homo sapiens, UniProt Q07869)
T2 sequence (Q07869 whole entry): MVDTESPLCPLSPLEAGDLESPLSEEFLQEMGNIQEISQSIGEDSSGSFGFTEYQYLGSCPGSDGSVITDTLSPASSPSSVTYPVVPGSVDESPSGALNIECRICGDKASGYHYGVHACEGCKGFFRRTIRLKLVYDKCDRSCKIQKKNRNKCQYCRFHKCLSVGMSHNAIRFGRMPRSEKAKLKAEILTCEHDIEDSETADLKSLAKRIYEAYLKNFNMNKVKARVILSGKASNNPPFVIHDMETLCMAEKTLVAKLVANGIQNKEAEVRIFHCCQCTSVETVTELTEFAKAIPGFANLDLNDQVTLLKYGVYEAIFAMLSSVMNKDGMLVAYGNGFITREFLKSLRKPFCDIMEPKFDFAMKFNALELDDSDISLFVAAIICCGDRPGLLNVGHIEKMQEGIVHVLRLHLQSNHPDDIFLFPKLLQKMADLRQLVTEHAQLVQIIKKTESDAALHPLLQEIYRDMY
Description: Agonist activity at human PPARalpha receptor by cell based transient transfection assay

[3] = target: T3, Peroxisome proliferator-activated receptor alpha (Mus musculus, UniProt P23204)
T3 sequence (P23204 whole entry): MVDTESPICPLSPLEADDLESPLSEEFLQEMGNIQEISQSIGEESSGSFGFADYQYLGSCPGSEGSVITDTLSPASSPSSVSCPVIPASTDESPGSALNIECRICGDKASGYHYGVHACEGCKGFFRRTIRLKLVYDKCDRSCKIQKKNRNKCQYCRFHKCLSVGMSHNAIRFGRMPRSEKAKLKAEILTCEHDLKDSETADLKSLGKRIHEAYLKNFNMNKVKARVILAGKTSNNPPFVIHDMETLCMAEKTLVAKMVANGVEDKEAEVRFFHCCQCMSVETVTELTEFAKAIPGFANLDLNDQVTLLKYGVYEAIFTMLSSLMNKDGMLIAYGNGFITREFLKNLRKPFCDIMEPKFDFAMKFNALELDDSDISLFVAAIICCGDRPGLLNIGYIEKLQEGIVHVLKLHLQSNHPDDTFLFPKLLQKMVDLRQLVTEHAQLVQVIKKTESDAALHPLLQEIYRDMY
Description: Agonist activity at mouse PPARalpha receptor by cell based transient transfection assay

[4] = target: T4, Peroxisome proliferator-activated receptor delta (Mus musculus, UniProt P35396)
T4 sequence (P35396 whole entry): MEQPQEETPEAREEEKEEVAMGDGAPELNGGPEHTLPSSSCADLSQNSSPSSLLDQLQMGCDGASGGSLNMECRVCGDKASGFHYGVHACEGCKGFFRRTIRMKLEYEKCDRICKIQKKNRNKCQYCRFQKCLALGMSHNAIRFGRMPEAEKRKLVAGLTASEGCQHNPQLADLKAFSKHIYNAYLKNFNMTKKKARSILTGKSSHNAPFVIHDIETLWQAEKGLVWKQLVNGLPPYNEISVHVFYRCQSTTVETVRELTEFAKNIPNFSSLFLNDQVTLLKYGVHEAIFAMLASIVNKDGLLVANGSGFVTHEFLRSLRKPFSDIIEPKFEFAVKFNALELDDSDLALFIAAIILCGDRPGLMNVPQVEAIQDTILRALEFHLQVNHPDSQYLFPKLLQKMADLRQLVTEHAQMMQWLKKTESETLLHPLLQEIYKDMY
Description: Agonist activity at mouse PPARdelta receptor by cell based transient transfection assay

[5] = target: T5, Peroxisome proliferator-activated receptor gamma (Mus musculus, UniProt P37238)
T5 sequence (P37238 whole entry): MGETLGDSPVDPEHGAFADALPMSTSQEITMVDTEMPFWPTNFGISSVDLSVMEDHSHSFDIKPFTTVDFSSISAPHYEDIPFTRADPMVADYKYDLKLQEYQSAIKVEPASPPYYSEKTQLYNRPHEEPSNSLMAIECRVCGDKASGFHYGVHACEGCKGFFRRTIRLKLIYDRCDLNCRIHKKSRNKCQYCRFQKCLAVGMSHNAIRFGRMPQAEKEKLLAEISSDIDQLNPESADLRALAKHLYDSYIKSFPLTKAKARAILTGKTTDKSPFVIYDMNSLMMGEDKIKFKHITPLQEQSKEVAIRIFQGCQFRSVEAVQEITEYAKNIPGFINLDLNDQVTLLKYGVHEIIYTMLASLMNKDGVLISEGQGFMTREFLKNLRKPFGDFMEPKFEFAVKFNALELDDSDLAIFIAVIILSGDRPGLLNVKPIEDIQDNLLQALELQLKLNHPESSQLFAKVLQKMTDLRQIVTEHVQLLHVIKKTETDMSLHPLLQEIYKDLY
Description: Agonist activity at mouse PPARgamma receptor by cell based transient transfection assay

[6] = target: T6, Peroxisome proliferator-activated receptor delta (Homo sapiens, UniProt Q03181)
T6 sequence (Q03181 whole entry): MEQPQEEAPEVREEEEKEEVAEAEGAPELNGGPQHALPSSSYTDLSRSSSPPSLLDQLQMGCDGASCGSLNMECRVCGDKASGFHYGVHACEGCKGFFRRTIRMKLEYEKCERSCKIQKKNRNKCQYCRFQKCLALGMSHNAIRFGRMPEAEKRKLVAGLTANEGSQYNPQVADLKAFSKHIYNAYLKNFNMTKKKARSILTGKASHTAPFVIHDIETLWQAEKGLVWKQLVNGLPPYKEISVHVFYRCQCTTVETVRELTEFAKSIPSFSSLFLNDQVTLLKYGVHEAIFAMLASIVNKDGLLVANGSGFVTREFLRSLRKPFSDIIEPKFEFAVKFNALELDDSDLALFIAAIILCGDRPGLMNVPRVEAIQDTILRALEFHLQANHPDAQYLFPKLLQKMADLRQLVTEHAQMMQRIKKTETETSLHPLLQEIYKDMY
Description: (§1) Agonist activity at human PPARdelta receptor by cell based transient transfection assay

[7] = target: T6, Peroxisome proliferator-activated receptor delta; remark: listed apart in the source
Description: as §1

[8] = AUC in CD rat at 5 mg/kg, po; assay type: ADME, organism-based; set-up: dose 5 mg/kg, route oral; settings: plasma
[9] = system: Rattus norvegicus; test: Increase in liver weight in Zucker fatty (fa/fa) rat at 30 mg/kg, bid after 5 days; assay type: functional
[10] = Bioavailability in CD rat at […], iv and 5 mg/kg, po; assay type: ADME, organism-based; settings: in vivo
[11] = system: Rattus norvegicus; test: Decrease in insulin level in Zucker fatty (fa/fa) rat at 30 mg/kg, bid after 5 days; assay type: functional; set-up: scale not given: the % may be the effect or the level left
[12] = Half life in CD rat at […], iv and 5 mg/kg, po; assay type: ADME, organism-based; settings: in vivo
[13] = system: Rattus norvegicus; test: Decrease in total triglyceride level in Zucker fatty (fa/fa) rat at 10 mg/kg, bid after 5 days; assay type: functional; set-up: scale not given: the % may be the effect or the level left
[14] = system: Rattus norvegicus; test: Decrease in total triglyceride level in Zucker fatty (fa/fa) rat at 30 mg/kg, bid after 5 days; assay type: functional; set-up: scale not given: the % may be the effect or the level left
[15] = Cmax in CD rat at […], iv and 5 mg/kg, po; assay type: ADME, organism-based; settings: in vivo
[16] = Clearance in CD rat at […], iv and 5 mg/kg, po; assay type: ADME, organism-based; settings: in vivo
[17] = system: Rattus norvegicus; test: Decrease in insulin level in Zucker fatty (fa/fa) rat at 10 mg/kg, bid after 5 days; assay type: functional; set-up: scale not given: the % may be the effect or the level left
[18] = Volume of distribution at steady state in CD rat at […], iv and 5 mg/kg, po; assay type: ADME, organism-based; settings: in vivo, read-out: Vdss
[19] = system: Rattus norvegicus; test: Increase in liver weight in Zucker fatty (fa/fa) rat at 10 mg/kg, bid after 5 days; assay type: functional

SMILES | EC50 [1] | EC50 [2] | EC50 [6] | also measured
C=CCn1nc(-c2ccc(C(C)(C)C)cc2)cc1C(=O)NCc1ccc(OC(C)(C)C(=O)O)c(C)c1 | 60 nM | 45 nM |  | 
C=CCn1nc(C(=O)NCc2ccc(OC(C)(C)C(=O)O)c(C)c2)cc1-c1ccc(C(C)(C)C)cc1 |  |  |  | EC50 [3]: 6000 nM; EC50 [4]: > 25000 nM; EC50 [5]: 150 nM
Cc1cc(CNC(=O)c2cc(-c3ccc(C(C)(C)C)cc3)n(Cc3ccccc3)n2)ccc1OC(C)(C)C(=O)O |  | 200 nM | 25000 nM | 
Cc1cc(CNC(=O)c2cc(-c3ccc(-c4ccccc4C)cc3)n(C)n2)ccc1OC(C)(C)C(=O)O | 30 nM | 90 nM |  | EC50 [3]: 1800 nM; EC50 [4]: > 25000 nM; EC50 [5]: 60 nM
COc1cc(CNC(=O)c2cc(-c3ccc(C(C)(C)C)cc3)n(C)n2)ccc1OC(C)(C)C(=O)O | 176 nM | > 25000 nM | > 25000 nM | 
COc1cc(CNC(=O)c2cc(-c3ccc(CC(C)C)cc3)n(C)n2)ccc1OC(C)(C)C(=O)O |  | > 25000 nM | > 25000 nM | 
Cc1cc(CNC(=O)c2cc(-c3ccc(N4CCCC4)cc3)n(C)n2)ccc1OC(C)(C)C(=O)O |  | 8 nM |  | 
Cc1cc(CNC(=O)c2cc(-c3ccc(C(C)C)cc3)nn2C)ccc1OC(C)(C)C(=O)O | 50 nM | 20 nM | 1360 nM | 
CCn1nc(C(=O)NCc2ccc(OC(C)(C)C(=O)O)c(C)c2)cc1-c1ccc(C(C)(C)C)cc1 | 15 nM | 10 nM | > 25000 nM | EC50 [3]: 2260 nM; EC50 [4]: > 25000 nM; EC50 [5]: 36 nM
Cn1nc(-c2ccc(C(C)(C)C)cc2)cc1C(=O)NCc1ccc(OC(C)(C)C(=O)O)cc1 | 1000 nM | 160 nM |  | EC50 [7]: 10000 nM
Cc1cc(CNC(=O)c2cc(-c3ccc(CC(C)C)cc3)nn2C)ccc1OC(C)(C)C(=O)O | 50 nM | 45 nM | 2870 nM | 
C=CCOc1ccc(-c2cc(C(=O)NCc3ccc(OC(C)(C)C(=O)O)c(C)c3)nn2C)cc1 |  |  | > 25000 nM | 
Cc1nc(-c2ccc(C(C)(C)C)cc2)sc1C(=O)NCc1ccc(OC(C)(C)C(=O)O)cc1 | 800 nM | 4 nM | 10000 nM | 
Cc1cc(CNC(=O)c2cc(-c3ccc(C(C)(C)C)cc3)n(C)n2)ccc1OC(C)(C)C(=O)O |  | 10 nM | > 10000 nM | AUC [8]: 1790 ng·h/mL; Activity [9]: 14%; bioavailability [10]: 22%; EC50 [3]: 640 nM; Activity [11]: 35%; half-life [12]: 49.8 min; Activity [13]: 57%; Activity [14]: 45%; EC50 [4]: > 25000 nM; Cmax [15]: 1130 ng/mL; clearance [16]: 17 mL/min/kg; Activity [17]: 10%; Vd [18]: 0.3 L/kg; EC50 [5]: 11 nM; Activity [19]: 9%
Cc1cc(CNC(=O)c2cc(-c3ccc(OCc4ccccc4)cc3)n(C)n2)ccc1OC(C)(C)C(=O)O | 80 nM | > 25000 nM | > 25000 nM | 
CCn1nc(-c2ccc(C(C)(C)C)cc2)cc1C(=O)NCc1ccc(OC(C)(C)C(=O)O)c(C)c1 | 30 nM | 50 nM | 2700 nM | 
Cc1cc(CNC(=O)c2cc(-c3ccc(N4CCOCC4)cc3)n(C)n2)ccc1OC(C)(C)C(=O)O | 110 nM | 85 nM | 35 nM | 
Cc1cc(CNC(=O)c2cc(-c3ccc(C(C)C)cc3)n(C)n2)ccc1OC(C)(C)C(=O)O | 8 nM |  | 4850 nM | EC50 [3]: 280 nM; EC50 [4]: 7100 nM; EC50 [5]: 16 nM
CCn1nc(C(=O)NCc2ccc(OC(C)(C)C(=O)O)c(OC)c2)cc1-c1ccc(C(C)(C)C)cc1 | 190 nM | > 25000 nM | > 25000 nM | 
